Drawing on patent US8519188B2, “Compounds which can be used for the treatment of cancers” (Marc-Henry Pitty, priority 2008, dated 2013), this text covers IC50 for 14 compounds.

Experiment [1] relates to MCF-7/adr adriamycin-resistant breast cancer cell line. The experiment is described as follows: Cell proliferation (CellTiter 96 AQueous MTS/PMS), MCF-7/adr. It counts as cell-based. Conditions: Homo sapiens, NCI/ADR-RES; MCF-7/adr; 72 hours of incubation; concentration that induces the death of 50% of the cells; read-out: CI50 for various cell lines (nM) MCF-7/adr.
Experiment [2] deals with MCF-7 breast cancer cell line. The experiment is described as follows: Cell proliferation (CellTiter 96 AQueous MTS/PMS), MCF-7. It counts as cell-based. Conditions: Homo sapiens, MCF7; MCF-7; 72 hours of incubation; concentration that induces the death of 50% of the cells; read-out: CI50 for various cell lines (nM) MCF-7.

Molecules are shown by their SMILES.

For the compound `CCN(CC)c1ccc(N(C(=O)CCl)C(C(=O)NC2CCCCC2)c2cccs2)cc1` (stereo not shown) [Compound 127, 2-[(2-Chloroacetyl)-(4-diethylaminophenyl)amino]-N-cyclohexyl-2-thiophen-2-yl-acetamide], the IC50 came out at 7.5 nM in experiment [1] and 77 nM in experiment [2].

Regarding `O=C(NC1CCCCC1)C(c1cccs1)N(C(=O)CCl)c1ccc(O)cc1` (stereo not shown) [Compound 128, 2-[(2-Chloroacetyl)-(4-hydroxyphenyl)amino]-N-cyclohexyl-2-thiophen-2-yl-acetamide], the IC50 in experiment [1] stood at 86 nM; in experiment [2], 133 nM.

For the compound `O=C(NC1CCCCC1)C(c1cccs1)N(C(=O)CCl)c1ccc(C(F)(F)F)cc1` (stereo not shown) [Compound 129, 2-[(2-Chloroacetyl)-(4-trifluoromethylphenyl)amino]-N-cyclohexyl-2-thiophen-2-yl-acetamide], the IC50 in experiment [1] was 3.6 nM; in experiment [2], 77 nM.

As for `O=C(CN(C(=O)CCl)c1cccc(C(F)(F)F)c1)NC1CCCCC1` [Compound 130, 2-Chloro-N-cyclohexylcarbamoylmethyl-N-(3-trifluoromethylphenyl)acetamide], the IC50 was found to be 34 nM in experiment [1] and 203 nM in experiment [2].

Take `O=C(NC1CCCCC1)C(c1cccs1)N(C(=O)CCl)c1cccc2ccccc12` (stereo not shown) [Compound 134, 2-[(2-Chloroacetyl)naphthalen-1-yl-amino]-N-cyclohexyl-2-thiophen-2-yl-acetamide]: the figures for the IC50 in experiment [1] and in experiment [2] were 74 nM and over 1000 nM, respectively.

As for `O=C(NC1CCCCC1)C(c1cccs1)N(C(=O)CCl)c1ccc2c(c1)OCO2` (stereo not shown) [Compound 135, 2-[1,3-Benzodioxol-5-yl-(2-chloroacetyl)amino]-N-cyclo hexyl-2-thiophen-2-yl-acetamide], the IC50 in experiment [1] was 19 nM; in experiment [2], 285 nM.

Regarding `COC(=O)CCNC(=O)C(c1cccs1)N(C(=O)CCl)c1cccc(C(F)(F)F)c1` (stereo not shown) [Compound 139, 3-{2-[(2-Chloroacetyl)-(3-trifluoromethylphenyl)amino]-2-thiophen-2-yl-acetylamino}propionic acid methyl ester], the results for the IC50 in experiment [1] and in experiment [2] were 63 nM and 468 nM, respectively.

`CN(C)c1ccc(C(C(=O)NC2CCCCC2)N(C(=O)CCl)c2cccc(C(F)(F)F)c2)cc1` (stereo not shown) [Compound 147]: the IC50 was 1.1 nM in experiment [1] and 92 nM in experiment [2].

Consider `O=C(NC1CCCCC1)C(c1ccc(N2CCCC2)cc1)N(C(=O)CCl)c1cccc(C(F)(F)F)c1` (stereo not shown) [Compound 150], for which the IC50 in experiment [1] was 0.6 nM; in experiment [2] it was 230 nM.

With `COC(=O)c1cccc(NC(=O)C(c2cccs2)N(C(=O)CCl)c2cccc(C(F)(F)F)c2)c1` (stereo not shown) [Compound 153], the IC50 was determined as 1.3 nM in experiment [1] and 79 nM in experiment [2].

On to `COC(=O)c1ccc(NC(=O)C(c2cccs2)N(C(=O)CCl)c2cccc(C(F)(F)F)c2)cc1` (stereo not shown) [Compound 154], for which the IC50 in experiment [1] came to 3.5 nM; in experiment [2], 88 nM.

For `CC(C)(C(=O)NCc1ccc(F)cc1)N(C(=O)CCl)c1ccc(F)cc1` [Compound 185, 2-[(2-Chloroacetyl)-(4-fluoro-phenyl)-amino]-N-(4-fluoro-benzyl)-2-methyl-propionamide], the IC50 in experiment [1] worked out at 127 nM; in experiment [2], 2790 nM.

For `COc1ccc(CNC(=O)C(C)(C)N(C(=O)CCl)c2ccc(Oc3ccccc3)cc2C)cc1` [Compound 187, 2-[(2-Chloro-acetyl)-(2-methyl-4-phenoxy-phenyl)-amino]-N-(4-methoxy-benzyl)-2-methyl-propionamide], the IC50 stood at 99 nM in experiment [1] and 1130 nM in experiment [2].

Turning to `CN1CCN(CCCOc2ccc(C(C(=O)NC3CCCCC3)N(C(=O)CCl)c3cccc(C(C)(C)C)c3)cc2)CC1` (stereo not shown) [Compound 189, 2-[(3-tert-Butyl-phenyl)-(2-chloro-acetyl)-amino]-N-cyclohexyl-2-[4-[3-(4-methyl-piperazin-1-yl)-propoxy]-phenyl]-acetamide], the figures for the IC50 in experiment [1] and in experiment [2] were 72 nM and 360 nM, respectively.
